Measured values as given in patent publication US20240109910A1, “HEXAHYDRO-5,8-EPOXYCYCLOHEPTA[c]PYRAZOLE DERIVATIVES USEFUL AS MODULATORS OF THE CB1 AND / OR CB2 RECEPTORS” (JANSSEN PHARMACEUTICA NV, priority 2019, published 2024).

What was measured:
[1] = biological target: hCB1 receptor (Homo sapiens, UniProt P21554); test: Agonism of CB1 by detection of cAMP using HTRF; type: cell-based; settings: CHO cells stably expressing CB1 receptor; for EC50: cAMP HTRF, forskolin-stimulated, average if tested more than once, read-out: hCB1 CHO EC50; for Emax: normalized to DMSO and maximal activation (5 nM CP55940)
Method: (§1) Method for Assaying Agonism of CB1 or CB2 by Detection of cAMP Using Homogeneous Time-Resolved Fluorescence (HTRF®)
(§2) CHOP-K1 cells stably expressing the CB1 receptor (PerkinElmer, ES-110-C) or the CB2 receptor (PerkinElmer, ES-111-CF) were seeded into 384 well white TC-treated plates (Greiner 781080) at 7000 cells per well in Ham's media (Gibco #31765-035) supplemented with 10% FBS (Gibco #16000-044) and 500 μg/mL Geneticin (Gibco #10131-027) and cultured overnight. The next day, plates were washed one time in assay buffer (HBSS with Ca^2+ and Mg^2+ (Corning #21-023-CV)+20 mM HEPES (Corning #25-060-Cl) and 0.01% BSA (Sigma A2153)). In a separate compound plate (Greiner 781201-906), 50 nL of test compound or DMSO was transferred using the Echo 550 (Labcyte), then 40 μL/well of assay buffer with 0.5 mM IBMX, 2 μM Forskolin (Sigma F3917), and 0.01% BSA was added. For the CB1 assay, assay buffer was dumped from the cell plate and fresh assay buffer containing 0.5 mM IBMX (Sigma I5679) was added at 30 μL/well, and the plate was incubated for 1 hr at 37° C., 5% CO2. Following the IBMX pre-treatment step, buffer was dumped from the cell plate, and 20 μL/well of the assay buffer with test compound was transferred into the cell plate with a subsequent incubation of 20 min at room temperature. Reagents for cAMP detection (cisbio 62AM4PEJ) were prepared and subsequently transferred to the cell plate at 20 μL/well. Following a 1 hr incubation at room temperature, the plate was read on the Pherastar FX (BMG, excitation 320 nm, detection at 620 nm (donor) and 665 nm (acceptor)). The ratio of signal at 665 nm/620 nm was determined for each well in the plate. For each assay day, a cAMP standard curve was run in parallel to assess the range of response and determine the concentration of cAMP in each well. Control wells (n=16 of each) with no activation of CB1 receptor (DMSO) and maximal activation (5 nM CP55940, Sigma) were used to normalize the data and to determine signal-to-background ratio and Z′. For the CB2 assay, conditions were as described above for the CB1 assay, except that the IBMX preincubation step was not used and that the 20 min compound incubation step occurred in the incubator at 37° C., 5% CO2.
(§3) EC50 values were calculated from dose response curves by nonlinear regression analysis using PRISM software.
(§4) Representative compounds of the present invention were tested according to the procedures described in Biological Example 1 above, with results as listed in Table 3, below. If a compound was tested more than once (due to multiple samples or batches), then the value listed in Table 3 below represents the average of the measured values.

[2] = biological target: hCB2 receptor (Homo sapiens, UniProt P34972); test: Agonism of CB2 by detection of cAMP using HTRF; type: cell-based; settings: CHO cells stably expressing CB2 receptor; for EC50: cAMP HTRF, forskolin-stimulated, average if tested more than once, read-out: hCB2 CHO EC50; for Emax: normalized to DMSO and maximal activation (5 nM CP55940)
Method: as §1, §2, §3, §4

Sequence of hCB1 receptor (P21554 whole entry): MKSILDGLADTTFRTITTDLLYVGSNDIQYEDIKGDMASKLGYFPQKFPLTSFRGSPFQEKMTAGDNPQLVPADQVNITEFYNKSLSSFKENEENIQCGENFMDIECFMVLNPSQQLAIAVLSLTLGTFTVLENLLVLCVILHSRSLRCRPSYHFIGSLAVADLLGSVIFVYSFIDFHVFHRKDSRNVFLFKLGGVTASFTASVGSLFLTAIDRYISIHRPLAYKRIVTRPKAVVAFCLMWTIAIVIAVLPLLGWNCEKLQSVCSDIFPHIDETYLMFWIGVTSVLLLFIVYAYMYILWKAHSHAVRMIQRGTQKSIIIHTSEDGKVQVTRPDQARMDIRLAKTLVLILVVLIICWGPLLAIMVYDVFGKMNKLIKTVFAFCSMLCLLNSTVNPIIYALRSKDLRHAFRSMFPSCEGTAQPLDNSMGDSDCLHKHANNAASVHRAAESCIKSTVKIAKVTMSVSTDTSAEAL
Sequence of hCB2 receptor (P34972 whole entry): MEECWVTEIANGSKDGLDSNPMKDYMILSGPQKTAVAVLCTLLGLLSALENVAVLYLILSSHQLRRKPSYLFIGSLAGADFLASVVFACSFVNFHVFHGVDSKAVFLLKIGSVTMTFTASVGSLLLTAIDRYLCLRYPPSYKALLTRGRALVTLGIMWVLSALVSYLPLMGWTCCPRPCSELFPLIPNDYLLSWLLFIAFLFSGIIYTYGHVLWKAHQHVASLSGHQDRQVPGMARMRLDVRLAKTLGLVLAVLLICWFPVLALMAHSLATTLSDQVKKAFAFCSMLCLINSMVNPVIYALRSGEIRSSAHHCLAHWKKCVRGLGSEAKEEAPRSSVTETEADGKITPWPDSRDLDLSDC

Row | SMILES | EC50 [1] [nM] | Emax [1] [%] | EC50 [2] [nM] | Emax [2] [%]
1 | CC(C)(C)NC(=O)c1nn(-c2ccc(F)cc2F)c2c1CC1CCC2O1 (stereo not drawn) [Compound 1, N-(tert-butyl)-1-(2,4-difluorophenyl)-1,4,5,6,7,8-hexahydro-5,8-epoxycyclohepta[c]pyrazole-3-carboxamide] | 108 | 99 | 1.2 | 95.6
2 | CC(C)(C)NC(=O)c1c2c(nn1-c1ccc(F)cc1F)C1CCC(C2)O1 (stereo not drawn) [Compound 2, N-(tert-butyl)-2-(2,4-difluorophenyl)-2,4,5,6,7,8-hexahydro-5,8-epoxycyclohepta[c]pyrazole-3-carboxamide] | – | – | 2980 | 72.8
3 | CC(C)(C)NC(=O)c1nn(-c2cnccn2)c2c1CC1CCC2O1 (stereo not drawn) [Compound 3, N-(tert-butyl)-1-(pyrazin-2-yl)-1,4,5,6,7,8-hexahydro-5,8-epoxycyclohepta[c]pyrazole-3-carboxamide] | 2080 | 94.8 | 3.8 | 99.7
4 | CC(C)(C)NC(=O)c1c2c(nn1-c1cnccn1)C1CCC(C2)O1 (stereo not drawn) [Compound 4, N-(tert-butyl)-2-(pyrazin-2-yl)-2,4,5,6,7,8-hexahydro-5,8-epoxycyclohepta[c]pyrazole-3-carboxamide] | – | – | 4070 | 75.8
5 | CC(C)(C)[C@@H](CO)NC(=O)c1nn(-c2cnccn2)c2c1C[C@@H]1CC[C@H]2O1 [Compound 7, (5S,8R)-N-((S)-1-hydroxy-3,3-dimethylbutan-2-yl)-1-(pyrazin-2-yl)-1,4,5,6,7,8-hexahydro-5,8-epoxycyclohepta[c]pyrazole-3-carboxamide] | – | – | 0.56 | 100
6 | CC(C)(C)[C@@H](CO)NC(=O)c1nn(-c2cnccn2)c2c1C[C@H]1CC[C@@H]2O1 [Compound 8, (5R,8S)-N-((S)-1-hydroxy-3,3-dimethylbutan-2-yl)-1-(pyrazin-2-yl)-1,4,5,6,7,8-hexahydro-5,8-epoxycyclohepta[c]pyrazole-3-carboxamide] | 422 | 111 | 0.09 | 100
7 | O=C(NC1(C(F)(F)F)CC1)c1nn(-c2cnccn2)c2c1CC1CCC2O1 (stereo not drawn) [Compound 9, 1-(pyrazin-2-yl)-N-(1-(trifluoromethyl)cyclopropyl)-1,4,5,6,7,8-hexahydro-5,8-epoxycyclohepta[c]pyrazole-3-carboxamide] | – | – | 0.24 | 100
8 | O=C(NC1(C(F)(F)F)CCC1)c1nn(-c2cnccn2)c2c1CC1CCC2O1 (stereo not drawn) [Compound 10, 1-(pyrazin-2-yl)-N-(1-(trifluoromethyl)cyclobutyl)-1,4,5,6,7,8-hexahydro-5,8-epoxycyclohepta[c]pyrazole-3-carboxamide] | 571 | 90.3 | 0.04 | 100
9 | CC(C)(CO)NC(=O)c1nn(-c2cnccn2)c2c1CC1CCC2O1 (stereo not drawn) [Compound 11, N-(1-hydroxy-2-methylpropan-2-yl)-1-(pyrazin-2-yl)-1,4,5,6,7,8-hexahydro-5,8-epoxycyclohepta[c]pyrazole-3-carboxamide] | – | – | 7.1 | 99.2
10 | CC(C)(C)[C@@H](CO)NC(=O)c1nn(-c2c[n+]([O-])ccn2)c2c1C[C@@H]1CC[C@H]2O1 [Compound 15, 3-((5S,8R)-3-(((S)-1-hydroxy-3,3-dimethylbutan-2-yl)carbamoyl)-5,6,7,8-tetrahydro-5,8-epoxycyclohepta[c]pyrazol-1(4H)-yl)pyrazine 1-oxide] | – | – | 0.34 | 101
11 | O=C(NC1(C(F)(F)F)CC1)c1nn(-c2c[n+]([O-])ccn2)c2c1CC1CCC2O1 (stereo not drawn) [Compound 17, 3-(3-((1-(trifluoromethyl)cyclopropyl)carbamoyl)-5,6,7,8-tetrahydro-5,8-epoxycyclohepta[c]pyrazol-1(4H)-yl)pyrazine 1-oxide] | – | – | 0.12 | 100
12 | CC(C)(CO)NC(=O)c1nn(-c2c[n+]([O-])ccn2)c2c1CC1CCC2O1 (stereo not drawn) [Compound 19, 3-(3-((1-hydroxy-2-methylpropan-2-yl)carbamoyl)-5,6,7,8-tetrahydro-5,8-epoxycyclohepta[c]pyrazol-1(4H)-yl)pyrazine 1-oxide] | – | – | 1 | 100
13 | CC(C)(C)c1nc(-c2nn(-c3c[n+]([O-])ccn3)c3c2CC2CCC3O2)no1 (stereo not drawn) [Compound 23, 3-(3-(5-(tert-butyl)-1,2,4-oxadiazol-3-yl)-5,6,7,8-tetrahydro-5,8-epoxycyclohepta[c]pyrazol-1(4H)-yl)pyrazine 1-oxide] | – | – | 0.1 | 100
14 | CC(C)(C)c1nnc(-c2nn(-c3c[n+]([O-])ccn3)c3c2CC2CCC3O2)[s+]1[O-] (stereo not drawn) [Compound 28, 3-(3-(5-(tert-butyl)-1-oxido-1,3,4-thiadiazol-2-yl)-5,6,7,8-tetrahydro-5,8-epoxycyclohepta[c]pyrazol-1(4H)-yl)pyrazine 1-oxide] | – | – | 0.74 | 99
15 | CC(C)(C)NC(=O)c1c2c(nn1-c1c[n+]([O-])ccn1)C1CCC(C2)O1 (stereo not drawn) [Compound 30, 3-(3-(tert-butylcarbamoyl)-5,6,7,8-tetrahydro-5,8-epoxycyclohepta[c]pyrazol-2(4H)-yl)pyrazine 1-oxide] | – | – | 7970 | 66.3
16 | CC(C)(C)c1nc(-c2nn(-c3cnccn3)c3c2CC2CCC3O2)no1 (stereo not drawn) [Compound 32, 3-(5-(tert-butyl)-1,2,4-oxadiazol-3-yl)-1-(pyrazin-2-yl)-1,4,5,6,7,8-hexahydro-5,8-epoxycyclohepta[c]pyrazole] | – | – | 0.33 | 100
17 | CC(C)(C)c1cnc(-c2nn(-c3cnccn3)c3c2CC2CCC3O2)s1 (stereo not drawn) [Compound 34, 3-(5-(tert-butyl)thiazol-2-yl)-1-(pyrazin-2-yl)-1,4,5,6,7,8-hexahydro-5,8-epoxycyclohepta[c]pyrazole] | – | – | 0.24 | 99.7
18 | CCC(C)(C)c1noc(-c2nn(-c3cnccn3)c3c2CC2CCC3O2)n1 (stereo not drawn) [Compound 36, 3-(3-(tert-pentyl)-1,2,4-oxadiazol-5-yl)-1-(pyrazin-2-yl)-1,4,5,6,7,8-hexahydro-5,8-epoxycyclohepta[c]pyrazole] | – | – | 0.04 | 99.8
19 | CC(C)(C)c1nnc(-c2nn(-c3cnccn3)c3c2CC2CCC3O2)o1 (stereo not drawn) [Compound 39, 3-(5-(tert-butyl)-1,3,4-oxadiazol-2-yl)-1-(pyrazin-2-yl)-1,4,5,6,7,8-hexahydro-5,8-epoxycyclohepta[c]pyrazole] | – | – | 0.26 | 100
20 | CC(C)(C)c1cnc(-c2nn(-c3cnccn3)c3c2CC2CCC3O2)o1 (stereo not drawn) [Compound 40, 3-(5-(tert-butyl)oxazol-2-yl)-1-(pyrazin-2-yl)-1,4,5,6,7,8-hexahydro-5,8-epoxycyclohepta[c]pyrazole] | – | – | 0.13 | 99.7
21 | CC(C)(C)c1csc(-c2nn(-c3c[n+]([O-])ccn3)c3c2CC2CCC3O2)n1 (stereo not drawn) [Compound 44, 3-(3-(4-(tert-butyl)thiazol-2-yl)-5,6,7,8-tetrahydro-5,8-epoxycyclohepta[c]pyrazol-1(4H)-yl)pyrazine 1-oxide] | – | – | 46.3 | 84.6
22 | CC(C)(C)NC(=O)c1nn(-c2cnccn2)c2c1C1CCC(C2)O1 (stereo not drawn) [Compound 45] | – | – | 22.9 | 98.1
23 | CC(C)(C)NC(=O)c1c2c(nn1-c1cnccn1)CC1CCC2O1 (stereo not drawn) [Compound 46] | – | – | 1650 | 85.8
24 | CC(C)(C)NC(=O)c1nn(-c2ccc(F)cc2F)c2c1C1CCC(C2)O1 (stereo not drawn) [Compound 47] | – | – | 559 | 82.5
25 | CC(C)(C)NC(=O)c1nn(-c2c[n+]([O-])ccn2)c2c1C1CCC(C2)O1 (stereo not drawn) [Compound 48] | – | – | 1.98 | 99.9
26 | CC(C)(C)NC(=O)c1c2c(nn1-c1c[n+]([O-])ccn1)CC1CCC2O1 (stereo not drawn) [Compound 49] | – | – | 2670 | 80.3
